Experimental data as given in patent US12661362B2, “Methods for the prevention and treatment of hearing loss” (Ting Therapeutics LLC, priority 2020, dated 2026).

Columns and labels:
zebrafish neuromast HCs [1] = experiment: Niclosamide/ezetimibe combination hair cell protection in Cisplatin-treated zebrafish (Loewe synergy); assay type: in vivo; settings: 1.48 μM, cisplatin 300 μM
Experimental: Now referring to FIGS. 6A-6B, 5 dpf zebrafish were either incubated with vehicle (DMSO), cisplatin alone at 300 μM concentration, cisplatin and ezetimibe (0.002 μM to 13.3 μM), cisplatin and niclosamide (0.02 nM to 18.3 nM), or cisplatin and combination ezetimibe/niclosamide. After 6 hours, animals were transferred to fresh water for 1 hour and then sacrificed and processed for immunohistochemistry and HC count as described above. To further elucidate whether Niclosamide, synergizes with Nrf2 activators to protect zebrafish HCs from Cisplatin damage, we tested the extent of HC damage in presence of Niclosamide and a Nrf2 activator, ezetimibe.
A three-dimensional contour plot (A) showing dose response of neuromast hair cell protection in zebrafish treated with varying concentrations of niclosamide and ezetimibe mapped to synergy distribution. […] Other dose combinations showing synergy are shown in dark blue boxes. Dose combinations with scores of 0 and 1 show additive effect. *P<5×10−2; **P<10−3, ***P<10−4 versus control fish, One-sample t-test run by the Combenefit software44. Data is shown as mean±standard deviation.
Zebrafish were treated with combinations of Niclosamide (ranging from 0.02-18.3 nM) and EZ (ranging from 0.0183-13.3 μM).

FVB/NJ mice = experiment: Safety monitoring of drugs IP in FVB/NJ mice, with or without Cisplatin; assay type: in vivo, mouse; settings: for weight loss, pain and distress: Niclosamide 10, Ingenol 0.3, Elesclomol 5 mg/kg/day IP, 4 consecutive days
Experimental: To investigate the drugs' effects on mammalian auditory function in vivo, we first treated 5-7 weeks old FVB/NJ mice with […] drug candidates: Niclosamide (10 mg/kg/day), Ingenol (0.3 mg/kg/day), Elesclomol (5 mg/kg/day), for 4 consecutive days (IP) to monitor safety of the drugs. All tested doses were determined based on previous published data showing maximum non-toxic dose through intraperitoneal (IP) injection.
Baseline auditory brainstem response (ABR) were measured on 16 mice divided in 3 groups receiving Ingenol, Elesclomol, and Niclosamide. The mice received the drug doses described above, then on day 2 of drug injection mice also received 30 mg/kg Cisplatin (IP; 4 mice per group).

[2] = chemotherapy; cited from earlier work
HEI-OC1 cells = experiment: Caspase-Glo 3/7 assay in HEI-OC1 cells treated with Cisplatin; assay type: cell-based, mouse; settings: Cisplatin 50 μM; for caspase activity: at a dosage of ~40 μM
Experimental: Now referring to FIG. 3A, and FIGS. 3D-3E, compounds protect from cisplatin toxicity in the mouse inner ear cell line. House Ear Institute-Organ of Corti 1 (HEI-OC1) cells (House Research Institute) were maintained in high-glucose Dulbecco's modified Eagle medium supplemented with 10% fetal bovine serum (Life Technologies, USA) at 33° C. and 10% CO2 as previously described (Kalinec et al., 2003). Cells were seeded at 8,000 cells/well in 96 well plates and left to attach overnight. Now referring to FIG. 3A, For the drug screening, HEI-OC1 cells were pretreated with 30 drug candidates at concentrations ranging from 2 nM to 40 μM one hour before receiving cisplatin. The cisplatin dose (50 μM) was based on our previously published dose response curve. The cells were co-incubated with cisplatin and drug candidates for an additional 19 hours prior to Caspase-Glo 3/7 assay (Promega, Madison, WI) as previously shown. Additionally, […] kenpaullone-treated cells were used as positive controls to validate our results. The DMSO concentration in drug preparation was adjusted to 0.1% v/v and it was verified that 0.5% DMSO had no effect on the cell death kinetics (Hall et al., 2014). Results of the assay were run in triplicate and normalized to cisplatin-only and media-only controls. The percent caspase activity was used to determine the relative protective effect of each compound. The luminescence detection representing caspase activity in each well was obtained using a Cytation Hybrid Multi-Mode Reader (Biotek, Winooski, VT, USA). The percent protection of the cells was calculated using caspase 3/7 readouts and the following formula: […]
In the following examples, Niclosamide, 5-chloro-N-(2-chloro-4-nitrophenyl)-2-hydroxy-benzamide, with a ≥95% purity was used for all experiments (Cayman Chemical, USA).

zebrafish neuromast HCs [3] = experiment: Zebrafish lateral-line neuromast hair cell protection against Cisplatin; assay type: in vivo, Danio rerio; settings: doses of 0.002, 0.0183, 0.165 and 1.48 μM; Cisplatin 4 hours
Experimental: Danio rerio experimental larvae were obtained by pair mating of adult fish maintained at Creighton University by standard methods approved by the Institutional Animal Care and Use Committee. […] We used Tg(pou4f3:mGFP) expressing a membrane bound GFP in HCs. Experimental fish were maintained at 28.5° C. in E3 media (5 mM NaCl, 0.17 mM KCl, 0.33 mM CaCl2) and […], pH 7.2). Animals were cryoanaesthetized after drug treatment and prior to fixation. The neuromasts inspected, S03 and 01-2, were part of the cranial system and included the otic, middle, and opercular neuromasts.
Subsequently, animals were transferred to E3 water for 5 hours and fixed in 4% paraformaldehyde (PFA) overnight (26). Neuromast HCs were immunolabeled with anti-otoferlin (HCS-1, DSHB) and anti-GFP (NB100-1614, Novus Biologicals). These two markers were used to detect and count neuromast HCs to reduce the chances of missing some of the HCs after the treatment since we previously noticed that incubation with the compounds can affect GFP expression more difficult to detect under a fluorescence microscope. Otic, middle, and opercular neuromasts were identified, and HCs at S03 (supraorbital line neuromast) and 01-2 (Otic line neuromasts) were manually counted using a Zeiss AxioSkop 2 fluorescence microscope with a 40× oil objective. Compounds were then evaluated on efficiency and potency, with the top-rated compounds showing high protection at lower concentrations.

Compound: O=C1[C@H](CC[C@H](O)c2ccc(F)cc2)[C@@H](c2ccc(O)cc2)N1c1ccc(F)cc1 [Ezetimibe]
- HC per neuromast counts, compound alone (zebrafish neuromast HCs [1]): higher HC per neuromast counts

Compound: N.N.[Cl][Pt][Cl] [Cisplatin]
- weight loss (FVB/NJ mice; Cisplatin alone, 30 mg/kg IP): 10-15%
- treated cancer patients with permanent hearing loss [2]: 40-60%

Compound: CN(NC(=O)CC(=O)NN(C)C(=S)c1ccccc1)C(=S)c1ccccc1 [Elesclomol]
- caspase activity (HEI-OC1 cells): 20%
- caspase-3/7 activity relative to control cells (HEI-OC1 cells; dose of 40 μM): reduce caspase activity to comparable levels as control cells
- weight loss, pain and distress (FVB/NJ mice): None of the mice showed reduced weight loss or signs of pain and distress

Compound: CC1=C[C@]23C(=O)[C@@H](C=C(CO)[C@@H](O)[C@]2(O)[C@H]1O)[C@H]1[C@@H](C[C@H]3C)C1(C)C [Ingenol]
- IC50 (HEI-OC1 cells; Mus musculus, HEI-OC1, HEI-OC1 cells, read-out: calculated IC50 (percent protection from caspase 3/7 readout)): 1.54 µM
- caspase activity (HEI-OC1 cells): 30%
- protection against CIHL in zebrafish (zebrafish neuromast HCs [3]): showed protection against CIHL
- weight loss, pain and distress (FVB/NJ mice): None of the mice showed reduced weight loss or signs of pain and distress
